Values of other authors, collected in patent US20230117508A1, “ENHANCEMENT OF CAMP SIGNALING AS A COMBINATION DRUG STRATEGY FOR THE TREATMENT OF PSYCHIATRIC AND NEUROLOGICAL DISORDERS IN WHICH DEPRESSIVE, ANHEDONIA, MOTIVATION-RELATED OR COGNITION-RELATED DYSFUNCTION EXISTS” (ALTO NEUROSCIENCE, INC., priority 2021, published 2023).

Key:
[1] = in vivo
[2] = humans
[3] = not given; remark: listed apart in the source
[4] = small clinical trials in depression

O=C(Nc1c(Cl)cncc1Cl)c1ccc(OC(F)F)c(OCC2CC2)c1 [Roflumilast]
antidepressant effect [1]: no evidence of an antidepressant effect
cognitive effects [1]: pro-cognitive effects

CCOC(=O)COc1ccc2c(c1)C[C@@H](NC[C@H](O)c1cccc(Cl)c1)CC2 [amibegron]
antidepressant-like effects in animals: promising antidepressant-like effects
efficacy in two acute treatment clinical trials for depression [2]: failed to show efficacy

COc1ccc(C2CNC(=O)C2)cc1OC1CCCC1 (stereo not drawn) [rolipram]
phenotypes of treated mice [3]: antidepressant and pro-cognitive phenotypes
improvement in depression compared with TCA medications [4]: In none of these studies, however, did rolipram produce a greater improvement in depression than the TCA medications
